The structures appear in SMILES notation. Active and inactive are the calls of the source. The rule behind the calls is not given here. Bounds are passed on as bounds.

In series [1] the test system is NCI/ADR-RES. Nature of the series: Reversal of P-gp-mediated multidrug resistance in human MCF7/ADR cells assessed as assessed as increase in intracellular adriamycin accumulation at 5 uM incubated 2 hrs before adriamycin challenge by spectrophotometry. The series is classed as cell-based.
Series [2] has as its system NCI/ADR-RES. In words: Reversal of P-gp-mediated multidrug resistance in human MCF7/ADR cells assessed as modulation factor, ratio of adriamycin IC50 without drug to adriamycin IC50 with drug at 10 uM after 72 hrs by MTT assay. The series is classed as cell-based.
In series [3] the test system is NCI/ADR-RES. In words: Reversal of P-gp-mediated multidrug resistance in human MCF7/ADR cells assessed as modulation factor, ratio of adriamycin IC50 without drug to adriamycin IC50 with drug at 1 uM after 72 hrs by MTT assay. It is filed as cell-based.
For series [4], the system named is MCF7. Nature of the series: Reversal of P-gp-mediated multidrug resistance in human MCF7 cells assessed as assessed as increase in intracellular adriamycin accumulation at 5 uM incubated 2 hrs before adriamycin challenge by spectrophotometry. It is filed as cell-based.
The test system of series [5] is NCI/ADR-RES. Nature of the series: Reversal of P-gp-mediated multidrug resistance in human MCF7/ADR cells assessed as modulation factor, ratio of adriamycin IC50 without drug to adriamycin IC50 with drug at 25 uM after 72 hrs by MTT assay. The series is classed as cell-based.
The nature of series [6]: Cytotoxicity against human MCF7/ADR cells after 72 hrs by MTT assay. The series is classed as functional, cell-based. The note with it: NCI/ADR-RES.
Series [7] relates to NCI/ADR-RES. In words: Inhibition of MDR1 gene expression in human MCF7/ADR cells after 48 hrs by RT-PCR analysis. It is filed as functional, cell-based.
Series [8] deals with MCF7. In words: Ratio of IC50 for human MCF7/ADR cells to IC50 for human MCF7 cells. It is filed as functional.
Series [9] relates to NCI/ADR-RES. Nature of the series: Reversal of P-gp-mediated multidrug resistance in human MCF7/ADR cells assessed as enhancement in cytotoxicity of adriamycin. The series is classed as cell-based.
In series [10] the target is T1, P-gp (ABCB1) (Homo sapiens, UniProt P08183). In words: Inhibition of P-gp in human Caco-2 cells assessed as decrease in efflux permeability from basolateral to apical side at 50 uM after 120 mins. It is filed as cell-based.
T1 sequence (P08183 whole entry): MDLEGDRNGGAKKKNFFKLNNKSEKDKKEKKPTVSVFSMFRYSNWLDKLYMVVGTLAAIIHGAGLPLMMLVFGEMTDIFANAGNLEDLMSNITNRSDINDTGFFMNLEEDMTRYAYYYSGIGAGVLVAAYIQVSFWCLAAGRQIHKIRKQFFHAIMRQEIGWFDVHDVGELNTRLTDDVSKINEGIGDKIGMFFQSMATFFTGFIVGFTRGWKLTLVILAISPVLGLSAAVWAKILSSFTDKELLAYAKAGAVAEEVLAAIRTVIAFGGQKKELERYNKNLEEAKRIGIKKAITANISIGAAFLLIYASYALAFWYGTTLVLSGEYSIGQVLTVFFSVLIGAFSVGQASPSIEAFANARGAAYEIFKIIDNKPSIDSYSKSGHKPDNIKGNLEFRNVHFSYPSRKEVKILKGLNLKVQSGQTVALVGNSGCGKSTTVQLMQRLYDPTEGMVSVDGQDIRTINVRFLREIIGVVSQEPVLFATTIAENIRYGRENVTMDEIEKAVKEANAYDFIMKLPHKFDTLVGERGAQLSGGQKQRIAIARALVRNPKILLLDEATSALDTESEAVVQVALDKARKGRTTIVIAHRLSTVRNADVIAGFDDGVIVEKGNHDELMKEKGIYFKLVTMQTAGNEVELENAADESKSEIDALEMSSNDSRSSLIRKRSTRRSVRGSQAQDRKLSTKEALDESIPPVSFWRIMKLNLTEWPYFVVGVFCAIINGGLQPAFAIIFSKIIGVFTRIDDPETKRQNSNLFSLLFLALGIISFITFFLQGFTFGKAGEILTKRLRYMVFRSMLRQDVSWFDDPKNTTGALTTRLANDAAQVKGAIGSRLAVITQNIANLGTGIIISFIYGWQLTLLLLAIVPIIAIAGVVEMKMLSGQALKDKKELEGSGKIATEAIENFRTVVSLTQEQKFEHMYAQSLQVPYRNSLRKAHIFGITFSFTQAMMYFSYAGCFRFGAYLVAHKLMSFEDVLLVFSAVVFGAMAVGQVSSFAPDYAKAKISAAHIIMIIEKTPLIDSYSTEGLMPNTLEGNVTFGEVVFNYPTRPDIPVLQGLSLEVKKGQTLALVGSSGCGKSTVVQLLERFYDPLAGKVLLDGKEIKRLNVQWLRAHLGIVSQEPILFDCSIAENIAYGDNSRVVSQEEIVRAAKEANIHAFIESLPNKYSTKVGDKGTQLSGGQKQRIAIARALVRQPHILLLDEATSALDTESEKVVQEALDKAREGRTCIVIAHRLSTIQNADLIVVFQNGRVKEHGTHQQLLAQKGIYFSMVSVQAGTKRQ
Series [11] concerns the target T1, P-gp (ABCB1). In words: Inhibition of P-gp in human Caco-2 cells assessed as increase in influx permeability from apical to basolateral side at 50 uM after 120 mins. It is filed as cell-based.

As for `COc1ccc(-c2oc3c(CC=C(C)C)c(OS(C)(=O)=O)cc(O)c3c(=O)c2OS(C)(=O)=O)cc1`, the result in the series with NCI/ADR-RES [1] was Active. The Ratio IC50 in the series with NCI/ADR-RES [2] worked out at 1.36; with NCI/ADR-RES [3] it was 1.11; in the series with NCI/ADR-RES [5], 1.46. Also, in the series on MCF7 [4], the result was inactive. For the same molecule, the IC50 in series [6] stood at 80.8 µM.
Take `COc1ccc(-c2oc3c4c(cc(O)c3c(=O)c2OS(C)(=O)=O)OC(C)(C)CC4)cc1`: the outcome in the series with NCI/ADR-RES [1] and in the series on NCI/ADR-RES [7] was Active. The Ratio IC50 is 2.34 with NCI/ADR-RES [2], 1.89 in the series with NCI/ADR-RES [3] and 2.71 in the series on NCI/ADR-RES [5]. For the same molecule, in the series on MCF7 [4], the result was inactive. This molecule also yielded an IC50 in series [6] of 55 µM.
On to `COc1ccc(-c2oc3c(CC=C(C)C)c(O)cc(O)c3c(=O)c2O[C@@H]2O[C@@H](C)[C@H](O)[C@@H](O)[C@H]2O)cc1`, for which, in the series with NCI/ADR-RES [1], the result was Active. Further, the Ratio IC50 with NCI/ADR-RES [2] worked out at 1.39; with NCI/ADR-RES [3], 1.28; in the series on NCI/ADR-RES [5], 1.61. The result in the series on MCF7 [4] was inactive. The same molecule displayed an IC50 in [6] of more than 100 µM.
Consider `COc1cccc2c1C(=O)c1c(O)c3c(c(O)c1C2=O)C[C@@](O)(C(=O)CO)C[C@@H]3O[C@H]1C[C@H](N)[C@H](O)[C@H](C)O1` [DOXORUBICIN], for which the “Ratio IC50” value in the series on MCF7 [8] came to 47.7. In [6], this molecule yielded an IC50 of 25.3 µM.
Regarding `COc1ccc(-c2oc3c(CC=C(C)C)c(O[C@@H]4O[C@H](CO)[C@@H](O)[C@H](O)[C@H]4O)cc(O)c3c(=O)c2O[C@@H]2O[C@@H](C)[C@H](O)[C@@H](O)[C@H]2O)cc1` [ICARIIN], the result in the series on NCI/ADR-RES [1] was Active. The Activity result in the series with NCI/ADR-RES [9] is “Dose-dependent effect”. The values for the Ratio IC50 with NCI/ADR-RES [2], in the series on NCI/ADR-RES [3] and in the series with NCI/ADR-RES [5] were 1.59, 1.41 and 2.03, respectively. Further, the result with MCF7 [4] was inactive. For the same molecule, the IC50 in series [6] is more than 100 µM.
In the case of `COc1ccc(-c2oc3c4c(cc(O)c3c(=O)c2O)OC(C)(C)CC4)cc1`, the outcome with NCI/ADR-RES [1] and in the series with NCI/ADR-RES [7] was Active. Also, the inhibition at 2 h, 50 µM on P-gp (ABCB1) [10] and on P-gp (ABCB1) [11] was 39.6% in each case. Moreover, the fold change (FC) with NCI/ADR-RES [9] worked out at 10. In addition, the Ratio IC50 amounted to 4.35 with NCI/ADR-RES [2], 2.33 in the series with NCI/ADR-RES [3] and 10.1 with NCI/ADR-RES [5]. For the same molecule, the outcome with MCF7 [4] was inactive. Also, the IC50 in series [6] was more than 100 µM.
As to `COc1ccc(-c2oc3c(CC=C(C)C)c(O[C@@H]4O[C@H](CO)[C@@H](O)[C@H](O)[C@H]4O)cc(O)c3c(=O)c2O)cc1`, the outcome in the series on NCI/ADR-RES [1] was Active. For the same molecule, the Ratio IC50 in the series on NCI/ADR-RES [2] was 1.49; with NCI/ADR-RES [3], 1.41; in the series on NCI/ADR-RES [5], 1.62. For the same molecule, the outcome in the series with MCF7 [4] was inactive. Half-maximal inhibition in [6] (IC50) required 60.8 µM.
Consider `COc1ccc(-c2oc3c4c(cc(O)c3c(=O)c2OS(N)(=O)=O)OC(C)(C)CC4)cc1`, for which the result in the series with NCI/ADR-RES [1] and in the series on NCI/ADR-RES [7] was Active. Also, the results for the Ratio IC50 in the series with NCI/ADR-RES [2], in the series with NCI/ADR-RES [3] and in the series on NCI/ADR-RES [5] were 1.69, 1.42 and 3.65, respectively. The outcome with MCF7 [4] was inactive. The molecule also had an IC50 in series [6] of 92.1 µM.
Take `COc1ccc(-c2oc3c(CC=C(C)C)c(O)cc(O)c3c(=O)c2O)cc1` [ICARITIN]: the outcome in the series with NCI/ADR-RES [1] and in the series with NCI/ADR-RES [7] was Active. Moreover, the inhibition at 2 h, 50 µM on P-gp (ABCB1) [10] and at P-gp (ABCB1) [11] was 41.9% throughout. Moreover, in the series on NCI/ADR-RES [9], the fold change (FC) was 10. Further, the Ratio IC50 worked out at 4.96 with NCI/ADR-RES [2], 2.48 in the series on NCI/ADR-RES [3] and 12.9 in the series with NCI/ADR-RES [5]. For the same molecule, the outcome with MCF7 [4] was inactive. The half-maximal inhibitory concentration (IC50) in [6] worked out at 52.1 µM.
For `COc1ccc(-c2oc3c4c(cc(O)c3c(=O)c2O)OC(C)(C)CC4)cc1S(=O)(=O)O`, the outcome with NCI/ADR-RES [1] and in the series with NCI/ADR-RES [7] was Active. Moreover, the results for the Ratio IC50 in the series on NCI/ADR-RES [2], with NCI/ADR-RES [3] and in the series with NCI/ADR-RES [5] were 2.15, 1.33 and 2.56, respectively. In addition, the result with MCF7 [4] was inactive. The same molecule displayed an IC50 in [6] of more than 100 µM.
Take `COc1ccc(-c2oc3c(CCC(C)(C)OC)c(O)cc(O)c3c(=O)c2O)cc1`: the outcome in the series with NCI/ADR-RES [1] was Active. The Activity entry with NCI/ADR-RES [9] is “Dose-dependent effect”. Further, the Ratio IC50 in the series with NCI/ADR-RES [2] was found to be 2.41; in the series with NCI/ADR-RES [3] it was 1.26. Moreover, the result in the series on MCF7 [4] was inactive. Moreover, in series [6], the IC50 is 20.9 µM.

The values are drawn from ChEMBL document CHEMBL1152373, “Synthesis and antimultidrug resistance evaluation of icariin and its derivatives” (Bioorg Med Chem Lett, 2009).
